In the series the test system is rat cytochrome P4503A. As to conditions: for % inhibition (0.001%): oil ingredient at 0.001 wt % (Table 2); for % inhibition (0.01%): oil ingredient at 0.01 wt % (Table 2); for % inhibition (0.0001%): oil ingredient at 0.0001 wt % (Table 2).

In general, % inhibition refers to the percentage by which the read-out fell short of the control. A low value points to a weak effect.

Read-outs that look alike come from different tables or passages of the source.

Consider `COC(=O)c1ccccc1O` [Methyl Salicylate, Methyl-2-hydroxybenzoate], for which the “% inhibition (0.001%)” value came to 12% and the “% inhibition (0.01%)” value came out at 86%.
Turning to `COC(=O)c1ccccc1N` [Methyl Anthranilate, Methyl 2-aminobenzoate], the “% inhibition (0.0001%)” value was -7% and the “% inhibition (0.001%)” value amounted to 23%.
For the compound `C=C(C)[C@@H]1CC=C(C)C(=O)C1` [Carvone-(R)-(-), p-Mentha-6,8-dien-2-one], the “% inhibition (0.0001%)” value is reported as 27%, the “% inhibition (0.001%)” value is given as 69% and the “% inhibition (0.01%)” value is 100%.
Take `CC(C)=CCCC(C)CCO` (stereo not drawn) [Citronellal-(DL)-(β), 3,7-Dimethyl-6-octen-1-ol]: the “% inhibition (0.0001%)” value is listed as 41%, the “% inhibition (0.001%)” value is 86% and the “% inhibition (0.01%)” value amounted to 95%.
Regarding `C=C1C2CCC(C2)C1(C)C` (single isomer, unassigned) [Camphene-(+), 2,2-Dimethyl-3-methylenebicyclo[2.2.1]heptane], the “% inhibition (0.0001%)” value is on record as -49% and the “% inhibition (0.001%)” value was 12.4%.
With `CCOC(=O)/C=C/c1ccccc1` [Ethyl Cinnamate, trans-], the “% inhibition (0.0001%)” value is -13% and the “% inhibition (0.001%)” value is -16%.
Consider `CCOc1cc(C=O)ccc1O` [Ethyl Vanillin, 3-Ethoxy-4-hydroxybenzoledhyde], for which the “% inhibition (0.01%)” value is 58%.
`C=CC(C)(O)CCC=C(C)C` (racemic) [Linalcol-(±), 3,7-Dimethyl-1,6-octadien-3-ol]: the “% inhibition (0.0001%)” value was 41%, the “% inhibition (0.001%)” value is 72.0% and the “% inhibition (0.01%)” value came out at 85%.
In the case of `C=CCc1ccc(OC)cc1` [Entragole, 4-Allylanisole], the “% inhibition (0.0001%)” value is 7%, the “% inhibition (0.001%)” value worked out at 69.2% and the “% inhibition (0.01%)” value was found to be 100%.
Take `CC1=CCC(C(C)(C)O)CC1` (stereo not drawn) [Terpincol-α, p-Menth-1-en-8-ol]: the “% inhibition (0.0001%)” value amounted to 13.4%, the “% inhibition (0.001%)” value is on record as 86% and the “% inhibition (0.01%)” value stood at 100%.
`C=CC(=C)CCC=C(C)C` [Myrcene-β, 7-Methyl-3-methylene-1,6-octadiene]: the “% inhibition (0.0001%)” value stood at 0% and the “% inhibition (0.001%)” value was found to be 13%.
For `C=C1CC/C=C(\C)CC[C@@H]2[C@@H]1CC2(C)C` [Caryophyllene, trans-(-), β Caryophyllene] the same measures were 26% and 85%.
With `CC(=O)N1CCN(c2ccc(OCC3COC(Cn4ccnc4)(c4ccc(Cl)cc4Cl)O3)cc2)CC1` (stereo not drawn) [Ketoconazole, reference compound], the “% inhibition” value by setting is: (reference compound at 0.000001 % (Table 3)) 8%; (reference compound at 0.000005 % (Table 3)) 20%; (reference compound at 0.00001 % (Table 3)) 42%; (reference compound at 0.00005 % (Table 3)) 100%.
Take `CC12CCC(CC1=O)C2(C)C` (racemic) [Camphor-(±), 1,7,7-Trimethylbicyclo[2.2.1]heptan-2-one]: the “% inhibition (0.001%)” value is reported as 57% and the “% inhibition (0.01%)” value was determined as 87%.
For `O=C/C=C/c1ccccc1` [Cinnamic Aldehyde, trans-, 3-Phenylpropenaldehyde] the same measures were 29.0% and 78%.
With `CC1=CC=C(C(C)C)CC1` [Terpinene-α, p-Mentha-1,3-diene], the “% inhibition (0.0001%)” value is on record as -6% and the “% inhibition (0.001%)” value is listed as 28%.
With `C=C(C)[C@@H]1CC=C(C)CC1` [Limonene-(S)-(-), p-Mentha-1,8-diene], the “% inhibition (0.001%)” value is reported as 30% and the “% inhibition (0.01%)” value is recorded as 82.3%.
In the case of `Cc1ccc(C(C)C)cc1O` [Carvacrol, 5-isoPropyl-2-methylphenol], the “% inhibition (0.0001%)” value stood at 11%, the “% inhibition (0.001%)” value is 93% and the “% inhibition (0.01%)” value was determined as 97%.
Regarding `C=CC(C)(CCC=C(C)C)OC(C)=O` (stereo not drawn) [Linalyl Acetate, 3,7-Dimethyl-1,6-octadien-3-yl acetate], the “% inhibition (0.001%)” value turned out to be 55.8% and the “% inhibition (0.01%)” value was 100%.
As to `C=CCc1ccc(O)c(OC)c1` [Eugenol, 4-Allyl-2-methoxyphenol], the “% inhibition (0.0001%)” value is recorded as 9.8%, the “% inhibition (0.001%)” value came out at 66% and the “% inhibition (0.01%)” value is on record as 100%.
Take `C/C=C/c1ccc(OC)cc1` [Anethole, trans-, 4-Propenylanisole]: the “% inhibition (0.001%)” value worked out at 53% and the “% inhibition (0.01%)” value worked out at 100%.
On to `CC1=CCC2C(C1)C2(C)C` (stereo not drawn) [Carene-3-(Δ)], for which the “% inhibition (0.0001%)” value is reported as -26% and the “% inhibition (0.001%)” value came out at 34%.
Consider `C=C(C)C1CC=C(C)C(O)C1` (single isomer, unassigned) [Carveol-(-), p-Mentha-6,8-dien-2-ol], for which the “% inhibition (0.0001%)” value is reported as 2% and the “% inhibition (0.001%)” value came to 60%.
For `C=C(C)[C@H]1CC=C(C)C(=O)C1` [Carvone-(S)-(+), p-Mentha-6,8-dien-2-one], the “% inhibition (0.0001%)” value worked out at 30% and the “% inhibition (0.001%)” value was found to be 70.5%.
With `C=C1CC[C@H]2C[C@@H]1C2(C)C` [Pinene-(IS)-(-)-β, 6,6-Dimethyl-2-mehylenebicyclo[3.1.1]heptane], the “% inhibition (0.0001%)” value was -10%, the “% inhibition (0.001%)” value stood at 60% and the “% inhibition (0.01%)” value stood at 88%.
For `CC12CCC(CC1)C(C)(C)O2` [Eucatyptol, 1,8-Cincole], the “% inhibition (0.0001%)” value worked out at 38%, the “% inhibition (0.001%)” value is listed as 64% and the “% inhibition (0.01%)” value is given as 88%.
The matching figures for `CC1=CCC(O)(C(C)C)CC1` (stereo not drawn) [Terpinen-4-ol, p-Menth-1-en-4-ol]: 3.81%, 80% and 100%.
In the case of `CC(C)=C1CC[C@@H](C)CC1=O` [Pulegone-(R)-(+), p-Menth-4-(8)-en-3-one], the “% inhibition (0.0001%)” value is given as -17% and the “% inhibition (0.001%)” value is reported as 31%.
For `CC1(C)C(=O)[C@]2(C)CC[C@H]1C2` [Fenchone-(IR)-(-), 1,3,3-Trimethylbicyclo[2.2.1]heptan-2-one] the same measures were 14% and 38%.
On to `CC(=O)OC/C=C(\C)CCC=C(C)C` [Geranyl Acetate, trans-3,7-Dimethyl-2,,6-octadien-1-yl acetate], for which the “% inhibition (0.001%)” value is on record as 51.5% and the “% inhibition (0.01%)” value is reported as 73%.
On to `CC(C)=CCC/C(C)=C/C=O` [Citral], for which the “% inhibition (0.0001%)” value was determined as 44%, the “% inhibition (0.001%)” value was determined as 54% and the “% inhibition (0.01%)” value is on record as 99%.
Take `CC1(C)[C@H]2CC[C@]1(C)[C@H](O)C2` [Borneol-(IS)-endo(-), 1,7,7-Trimethylbicyclo[2.2.1]heptan-2-ol]: the “% inhibition (0.0001%)” value is given as 20%, the “% inhibition (0.001%)” value turned out to be 80% and the “% inhibition (0.01%)” value was determined as 100%.
Take `Cc1ccc(C(C)C)c(O)c1` [Thymol, 2-isoPropyl-5-methylphenol]: the “% inhibition (0.001%)” value was determined as 56% and the “% inhibition (0.01%)” value is recorded as 100%.
Turning to `COc1cc(CNC(=O)CCCC/C=C/C(C)C)ccc1O` [Capsaicin, trans-8-Methyl-N-vanillyl-6 nonenamide], the “% inhibition (0.0001%)” value was 27% and the “% inhibition (0.001%)” value stood at 68%.

The values above are taken from patent US5916566A, “Use of benzoin gum to inhibit P-glycoprotein-mediated resistance of pharmaceutical compounds” (AvMax, Inc., priority 1998, dated 1999).
